Holding throughout (format): in vivo, Wistar rats
Series [1] in a line: Prophylactic test: hepatotoxicity and renal function, serum biochemical index. The conditions noted are these: FINA 0.8 mg/kg orally. How it is done:
Male Wistar rats at 8 weeks of age (Samtako, Korea) were acclimated. When the rats weighed about 320 g on average (12 weeks old), they were divided into groups of 5. After removing the testis therefrom, the rats in one of the groups were allowed to revive for about 24 hours. Propionate testosterone was subcutaneously injected at a dose of 7 mg/kg into the castrated group and the normal group to induce prostate hypertrophy for 8 weeks (BPH-induced groups). After induction of prostate hypertrophy for 8 weeks, the rats were treated as follows. Along with testosterone injection, the bay leaf extracts were orally administered at predetermined doses (mg/kg) once a day (seven times a week) for 8 weeks. Separately, Finasteride, which is a commercially available therapeutic agent for benign prostatic hyperplasia, was orally administered to a positive control. For use in biochemical index analysis, blood samples were taken from the rats of all the groups through abdominal veins. The blood sample was coagulated for about 30 min and centrifuged at 10,000 rpm for 5 min to separate sera. The sera thus obtained were measured for liver function index (AST and ALT), lipoprotein levels (total cholesterol (T-CHO), HDL cholesterol (HDL-C), LDL cholesterol (LDL-C)), and kidney function index (creatine), using a biochemical analyzer (AU480, Beckman Coulter, USA) (Table 4).

Series [2] relates to benign prostatic hyperplasia (testosterone-induced prostate hypertrophy). Nature of the series: Therapeutic efficacy on benign prostatic hyperplasia: change in prostate weight and volume. Particulars: FINA 0.8 mg/kg orally, BPH-induced rats, therapeutic test. The protocol: (§1) Male Wistar rats at 8 weeks of age (Samtako, Korea) were acclimated. When the rats weighed about 380 g on average (19 weeks old), they were divided into groups of 7.
(§2) After removing the testis therefrom, the rats in one of the groups were allowed to revive for about 24 hours. Propionate testosterone was subcutaneously injected at a dose of 5 mg/kg into the castrated group and the normal group to induce prostate hypertrophy for 8 weeks (BPH-induced groups). After induction of prostate hypertrophy for 8 weeks, the rats were treated as follows. Along with testosterone injection, the bay leaf extracts were orally administered at predetermined doses (mg/kg) once a day (seven times a week) for 8 weeks. Separately, Finasteride, which is a commercially available therapeutic agent for benign prostatic hyperplasia, was orally administered to a positive control.
After completion of the experiment, the rats of all the experimental groups were euthanized. The prostate tissues and main organs were excised therefrom and measured for weight and volume using an electronic scale for animal weights and a caliper (mm^3) (Table 1).

Series [3] is described as follows: Therapeutic test: hepatotoxicity and renal function, serum biochemical index. The conditions noted are these: FINA 0.8 mg/kg orally. How it is done:
as §1, §2
For use in biochemical index analysis, blood samples were taken from the rats of all the groups through abdominal veins. The blood sample was coagulated for about 30 min and centrifuged at 10,000 rpm for 5 min to separate sera. The sera thus obtained were measured for liver function index (AST and ALT), lipoprotein levels (total cholesterol (T-CHO), HDL cholesterol (HDL-C), LDL cholesterol (LDL-C)), and kidney function index (creatine), using a biochemical analyzer (AU480, Beckman Coulter, USA) (Table 2).

Series [4] relates to benign prostatic hyperplasia (testosterone-induced prostate hypertrophy). The experiment in a line: Prophylactic effect on benign prostatic hyperplasia: change in prostate weight and volume. Particulars: FINA 0.8 mg/kg orally, BPH-induced rats, prophylactic test. The protocol:
Male Wistar rats at 8 weeks of age (Samtako, Korea) were acclimated. When the rats weighed about 320 g on average (12 weeks old), they were divided into groups of 5.
as §2, with “7” for “5”
After completion of the experiment, the rats of all the experimental groups were euthanized. The prostate tissues and main organs were excised therefrom and measured for weight and volume using an electronic scale for animal weights and a caliper (mm^3) (Table 3).

In series [1], `CC(C)(C)NC(=O)[C@H]1CC[C@H]2[C@@H]3CC[C@H]4NC(=O)C=C[C@]4(C)[C@H]3CC[C@]12C` [Finasteride] had an ALT of 51.6 U/L, an AST of 140.4 U/L, a CRE of 0.2 mg/dL and an HDL of 43.3 mg/dL. For the same molecule, in series [1], the LDL is 17.0 mg/dL and the T-CHO is recorded as 60.6 mg/dL. For the same molecule, in series [2], the Kidney weight was found to be 0.65 g, the Liver weight came out at 10.36 g, the Prostate volume is 3459.59 mm^3 and the “Prostate weight (b)” value is listed as 1.16 g. Moreover, in series [2], the “Ratio (b/a*100)” value was determined as 0.28% and the “Weight (a)” value turned out to be 426.6 g. In series [3], this molecule registered an ALT of 50.3 U/L, an AST of 83.1 U/L, a CRE of 0.3 mg/dL and an HDL of 43.6 mg/dL. For the same molecule, in series [3], the LDL worked out at 14.1 mg/dL and the T-CHO was found to be 70.7 mg/dL. Further, in series [4], the Kidney weight amounted to 0.58 g, the Liver weight was found to be 8.09 g, the Prostate volume is 4626.31 mm^3 and the “Prostate weight (b)” value was 1.43 g. For the same molecule, in series [4], the “Ratio (b/a*100)” value worked out at 0.43% and the “Weight (a)” value worked out at 328.3 g.

Source of the values: US20220370537A1, “PHARMACEUTICAL COMPOSITION AND FUNCTIONAL HEALTH FOOD FOR TREATING BENIGN PROSTATIC HYPERPLASIA INCLUDING LAURUS NOBILIS AS ACTIVE INGREDIENT, AND METHOD OF TREATING BENIGN PROSTATIC HYPERPLASIA USING THE SAME” (KOSABIO INC., priority 2020, published 2022).
